Counter-ions that a name gives are not always drawn.
Details: Rat Intraveneous, 20 mpk

Compound	t1/2 [h]
Cl.O=C(NO)C1(S(=O)(=O)c2ccc(Oc3ccc(-n4cncn4)cc3)cc2)CCS(=O)(=O)CC1 [Example 53, Tetrahydro-N-hydroxy-4-[[4-[4-(1H-1,2,4-triazol-1-yl)phenoxy]-phenyl]-sulfonyl]-2H-thiopyran-4-carboxamide 1,1-dioxide, monohydrochloride]	0.97
CN1CCC(C(=O)NO)(S(=O)(=O)c2ccc(Sc3ccccc3)cc2)CC1.Cl [Example 33, N-hydroxy-1-methyl-4-[[4-(phenylthio)phenyl]sulfonyl]-4-piperidinecarboxamide, monohydrochloride]	1.91
Cl.O=C(NO)C1(S(=O)(=O)c2ccc(Oc3ccc(C(F)(F)F)cc3)cc2)CCN(C2CC2)CC1 [Example 427, 1-cyclopropyl-N-hydroxy-4-[[4-[4-(trifluoromethyl)phenoxy]phenyl]sulfonyl]-4-piperidinecarboxamide, monohydrochloride]	2.85
O=C(O)CNc1ccc(Oc2ccc(S(=O)(=O)C3(C(=O)NO)CCSCC3)cc2)cc1 [Example 117, tetrahydro-N-hydroxy-4-[[4-[4-hydroxyphenylglycine)]phenyl]sulfonyl 2H-thionyran-4-carboxamide]	0.78
CC(=O)N1CCC(C(=O)NO)(S(=O)(=O)c2ccc(Sc3ccccc3)cc2)CC1.Cl [Example 36, 1-acetyl-N-hydroxy-4-[[4-(phenylthio)phenyl]sulfonyl]-4-piperidinecarboxamide, monohydrochloride]	0.65
O=C(NO)C1(S(=O)(=O)c2ccc(Oc3ccc(SC(F)(F)F)cc3)cc2)CCOCC1 [Example 382, Tetrahydro-N-hydroxy-4-[[4-[4-[(trifluoromethyl)thio]phenoxy]phenyl]-sulfonyl]-2H-pyran-4-carboxamide]	1.71
O=C(NO)C1(S(=O)(=O)c2ccc(Oc3ccc(C(F)(F)F)cc3)cc2)CCN(Cc2ccccn2)CC1 [Example 391, N-hydroxy-1-(2-pyridinylmethyl)-4-[[4-[4-(trifluoromethyl)phenoxy]phenyl]-sulfonyl]-4-piperidinecarboxamide, dihydrochloride]	1.45
O=C(NO)C1(S(=O)(=O)c2ccc(Sc3ccc(F)cc3)cc2)CCOCC1 [Example 103, 4-[[4-[(4-fluorophenyl)-thio]phenyl]sulfonyl]tetrahydro-N-hydroxy-2H-pyran-4-carboxamide]	1.10
CCN1CCC(C(=O)NO)(S(=O)(=O)c2ccc(OCc3ccc(C(F)(F)F)cc3)cc2)CC1.Cl [Example 438, 1-ethyl-N-hydroxy-4-[(4-[[4-[trifluoromethyl)phenyl]methoxy]-phenyl]sulfonyl]-4-piperidine-carboxamide, monohydrochloride]	2.14
COCCN1CCC(C(=O)NO)(S(=O)(=O)c2ccc(Oc3ccc(C(F)(F)F)cc3)cc2)CC1.Cl [Example 418, N-hydroxy-1-(2-methoxyethyl)-4-[[4-[4-(trifluoromethyl)-phenoxy]phenyl]sulfonyl}-4-piperidinecarboxamide, monohydrochloride]	2.42
O=C(NO)C1(S(=O)(=O)c2ccc(Oc3ccc(C(F)(F)F)cc3)cc2)CCN(CCN2CCOCC2)CC1 [Example 388, N-hydroxy-1-[2-(4-morpholinyl)-ethyl]-4-[(4-(4-(trifluoromethyl)phenoxy]-phenyl]sulfonyl]-4-piperidinecarboxamide, dihydrochloride]	0.94
O=C(NO)C1(S(=O)(=O)c2ccc(Oc3ccc(C(F)(F)F)cc3)cc2)CCN(Cc2cccnc2)CC1 [Example 390, N-hydroxy-1-(3-pyridinylmethyl)-4-[[4-(4-trifluoromethyl)phenoxy]phenyl]-sulfonyl]-4-piperidinecarboxamide, dihydrochloride]	1.50
NCC(=O)Nc1ccc(Sc2ccc(S(=O)(=O)C3(C(=O)NO)CCSCC3)cc2)cc1 [Example 118]	1.85
Cl.O=C(NO)C1(S(=O)(=O)c2ccc(Sc3ccncc3)cc2)CCOCC1 [Example 104, Tetrahydro-N-hydroxy-4-[[4-(4-pyridinylthio)phenyl]sulfonyl]-2H-pyran-4-carboxamide, monohydrochloride]	0.66
C#CCN1CCC(C(=O)NO)(S(=O)(=O)c2ccc(Oc3ccc(C(C)C)cc3)cc2)CC1.Cl [Example 414, N-hydroxy-4-[[4-[4-(1-methylethyl)phenoxy]phenyl]sulfonyl]-1-(2-propynyl)-4-piperidinecarboxamide, monohdyrochloride]	0.73
COCCN1CCC(C(=O)NO)(S(=O)(=O)c2ccc(Oc3ccc(OC(F)(F)F)cc3)cc2)CC1.Cl [Example 416, N-hydroxy-1-(2-methoxyethyl)-4-[[4-[4-(trifluoro-methoxy)phenoxy]phenyl]sulfonyl}-4-piperidinecarboxamide, monohydrochloride]	2.94
Cl.O=C(NO)C1(S(=O)(=O)c2ccc(Oc3ccc(Cl)cc3)cc2)CCNCC1 [Example 93, 4-[[4-(4-chlorophenoxy)-phenyl]sulfonyl]-N-hydroxy-4-piperidinecarboxamide, monohydrochloride]	1.81
Nc1ccc(Sc2ccc(S(=O)(=O)C3(C(=O)NO)CCSCC3)cc2)cc1 [Example 115, tetrahydro-N-hydroxy-4-[[4-[4-aminophenyl)thiophenoxy]phenyl]sulfonyl 2H-thionyran-4-carboxamide]	1.36
O=C(NO)C1(S(=O)(=O)c2ccc(Oc3ccccc3)cc2)CCOCC1 [Example 94, Tetrahydro-N-hydroxy-4-[(4-phenoxyphenyl)sulfonyl]-2H-pyran-4-carboxamide]	1.71
Cl.O=C(NO)C1(S(=O)(=O)c2ccc(Oc3ccc(OC(F)(F)F)cc3)cc2)CCNCC1 [Example 410, N-hydroxy-4-[[4-[(trifluoromethoxy)phenoxy]phenyl]sulfonyl]-4-piperidinecarboxamide, monohydrochloride]	1.78
Cl.O=C(NO)C1(S(=O)(=O)c2ccc(Oc3ccc4c(c3)OCCO4)cc2)CCN(C2CC2)CC1 [Example 408, 1-cyclopropyl-4-[[4-[(2,3-dihydro-1,4-benzodioxin-6-yl)oxy]phenyl]-sulfonyl]-N-hydroxy-4-piperidine-carboxamide, monohydrochloride]	3.30
O=C(NO)C1(S(=O)(=O)c2ccc(Oc3ccccc3)cc2)CC[S+]([O-])CC1 (stereo not shown) [Example 111]	0.65
Cl.O=C(NO)C1(S(=O)(=O)c2ccc(Sc3ccccc3)cc2)CCN(C2CC2)CC1 [Example 32, 1-cyclopropyl-N-hydroxy-4-[[4-(phenylthio)phenyl]sulfonyl]-4-piperidine carboxamide, monohydrochloride]	1.03
C#CCN1CCC(C(=O)NO)(S(=O)(=O)c2ccc(Oc3ccc(Cl)c(C)c3)cc2)CC1.Cl [Example 81, 4-[(4-(4-chloro-3-methylphenoxy)phenyl]sulfonyl]-N-hydroxy-1-(2-propynyl)-4-piperidinecarboxamide, monohydrochloride]	0.76
Cl.O=C(NO)C1(S(=O)(=O)c2ccc(Oc3ccc(-n4ccnc4)cc3)cc2)CCOCC1 [Example 99, tetrahydro-N-hydroxy-4-[[4-[4-(1H-imidazol-1-yl)phenoxy]phenyl]-sulfonyl]-2H-pyran-4-carboxamide, monohydrochloride]	0.68
CC(C)c1ccc(Oc2ccc(S(=O)(=O)C3(C(=O)NO)CCOCC3)cc2)cc1 [Example 125, tetrahydro-N-hydroxy-4-[[4-[4-(1-methylethyl)phenoxy]phenyl]-sulfonyl]-2H-pyran-4-carboxamide]	0.73
C#CCN1CCC(C(=O)NO)(S(=O)(=O)c2ccc(Oc3ccc(C)c(C)c3)cc2)CC1.Cl [Example 43, 4-[[4-(3,4-Dimethylphenoxyl)phenyl]sulfonyl]-N-hydroxy-1-(2-propynyl)-4-piperidinecarboxamide, monhydrochloride]	0.82

Same assay, conditions: Rat Oral, 20 mpk, 6 hr

Compound	Blood Level @ 6 hr
Cl.O=C(NO)C1(S(=O)(=O)c2ccc(Oc3ccc(-n4cncn4)cc3)cc2)CCS(=O)(=O)CC1 [Example 53, Tetrahydro-N-hydroxy-4-[[4-[4-(1H-1,2,4-triazol-1-yl)phenoxy]-phenyl]-sulfonyl]-2H-thiopyran-4-carboxamide 1,1-dioxide, monohydrochloride]	BLD

Same assay, conditions: rat, in vivo, 20 mg/kg

Compound	Blood Level @ 3 min [µg/mL]
CC(=O)N1CCC(C(=O)NO)(S(=O)(=O)c2ccc(Oc3ccccc3)cc2)CC1 [Example 12, 1-acetyl-N-hydroxy-4-[(4-phenoxyphenyl)sulfonyl]-4-piperidinecarboxamide]	73.54
Cl.O=C(NO)C1(S(=O)(=O)c2ccc(Oc3ccccc3)cc2)CCN(C2CC2)CC1 [Example 17, 1-cyclopropyl-N-hydroxy-4-[(4-phenoxyphenyl)sulfonyl]-4-piperidinecarboxamide]	63.44

Same assay, conditions: rat, in vivo, po, 20 mg/kg

Compound	BA [%]	Blood Level @ 6 hr [µg/mL]
CC(=O)N1CCC(C(=O)NO)(S(=O)(=O)c2ccc(Oc3ccccc3)cc2)CC1 [Example 12, 1-acetyl-N-hydroxy-4-[(4-phenoxyphenyl)sulfonyl]-4-piperidinecarboxamide]	11.1	0.121
Cl.O=C(NO)C1(S(=O)(=O)c2ccc(Oc3ccccc3)cc2)CCN(C2CC2)CC1 [Example 17, 1-cyclopropyl-N-hydroxy-4-[(4-phenoxyphenyl)sulfonyl]-4-piperidinecarboxamide]	35.9	0.135

Source: patent publication US20060084688A1, “Aromatic sulfone hydroxamic acid metalloprotease inhibitor” (priority 1997, published 2006)
